From patent publication US9989543B2, “Composition, device, and method for detecting olmesartan and improving compliance in treating hypertension” (Autotelic LLC, priority 2016, dated 2018)
Read-outs that look alike come from different tables or passages of the source.

Tests used:
[1] = Olmesartan blood concentration/AUC after 7-day versus single-day dosing; assay type: in vivo, Korean healthy males
[2] = as above; assay type: in vivo, Korean healthy males; details: for % Reduction: Compliance-7X vs Non-Compliance-1X
Procedure: Drug exposure as AUC was studied among Korean healthy males aged between 20 and 50 years in two clinical studies: (1) taking drug regularly for 7 days (subjects were administered either 1 tablet of 40 mg olmesartan medoxomil, 1 tablet of 20 mg rosuvastatin calcium, or 1 tablet each of both agents orally every 24 hours for 7 days) and (2) taking drug only one day (58 subjects divided into 2 cohorts and treated over 2 periods; one tablet of ST-101 (FDC olmesartan and rosuvastatin) tablet of 40 mg olmesartan medoxomil/20 mg rosuvastatin calcium was administered once orally as the test drug, or 1 tablet each of 40 mg olmesartan medoxomil and 20 mg rosuvastatin calcium was co-administered once orally as the comparator). Pharmacokinetic analyses were performed. For PK analyses, blood samples were collected at 0 (pre-dose), 0.5, 2, 2.5, 3, 4, 5, 6, 7, 8, 10, 12, 16, 24, and 48 hr after dosing of olmesartan either as FDC or as single agent. The results are graphically illustrated in FIG. 1. FIG. 1 compares olmesartan AUC (area-under-the-curve) for subjects taking olmesartan regularly for 7 days (Multiple Dosing ×7, solid circles) and for subjects taking olmesartan only 1 day (Single Dosing ×1, open circles): mean+/−95% confidence interval (CI) for subjects taking olmesartan regularly for 7 days. […] The differences between compliance and non-compliance across a 24 hr period were determined (see Table 1). The % reduction in blood concentration can be used to determine if the patient is missing his/her medication. […] There is about 40 ng/mL remaining at 24 hr, which accumulated to about 60 ng/mL following consistently medication for 7 days. The comparison between full compliance for 7 days versus noncompliance is tabulated below.

[3] = highest dose, olmesartan at 40 mg/day; cited from earlier work

CCCc1nc(C(C)(C)O)c(C(=O)O)n1Cc1ccc(-c2ccccc2-c2nnn[nH]2)cc1 [olmesartan]
% Reduction ([1]; Time 1.5 hrs, Compliance-7X vs Non-Compliance-1X): 14.15%
concentration at 1 h ([1]; male, human, blood, oral, 40 mg, Time 1 hrs, dosing every 24 hours for 7 days, read-out: Blood concentration (ng/mL)/Compliance-7X): 858 ng/mL
% Reduction ([2]; Time 0 hrs): Infinity
% Reduction ([2]; Time 1 hrs): 26.84%
% Reduction ([2]; Time 2 hrs): 12.43%
% Reduction ([2]; Time 2.5 hrs): 13.33%
% Reduction ([2]; Time 3 hrs): 19.97%
% Reduction ([2]; Time 4 hrs): 19.85%
% Reduction ([2]; Time 5 hrs): 15.71%
% Reduction ([2]; Time 6 hrs): 20.17%
% Reduction ([2]; Time 8 hrs): 24.95%
% Reduction ([2]; Time 10 hrs): 30.40%
% Reduction ([2]; Time 12 hrs): 31.90%
% Reduction ([2]; Time 16 hrs): 40.22%
% Reduction ([2]; Time 24 hrs): 61.33%
concentration at 24 h ([2]; male, human, blood, oral, 40 mg, 24 hr, following consistently medication for 7 days, read-out: blood concentration remaining at 24 hr, accumulated): ~60 ng/mL
concentration at 0 h ([2]; male, human, blood, oral, 40 mg, Time 0 hrs, dosing every 24 hours for 7 days, read-out: Blood concentration (ng/mL)/Compliance-7X): 54.1 ng/mL
concentration at 1.5 h ([2]; male, human, blood, oral, 40 mg, dosing every 24 hours for 7 days, read-out: Blood concentration (ng/mL)/Compliance-7X): 1060 ng/mL
concentration at 1.5 h ([2]; male, human, blood, oral, 40 mg, drug taken only one day, read-out: Blood concentration (ng/mL)/Non-Compliance-1X): 932 ng/mL
concentration at 2 h ([2]; male, human, blood, oral, 40 mg, Time 2 hrs, dosing every 24 hours for 7 days, read-out: Blood concentration (ng/mL)/Compliance-7X): 1130 ng/mL
concentration at 2.5 h ([2]; male, human, blood, oral, 40 mg, Time 2.5 hrs, dosing every 24 hours for 7 days, read-out: Blood concentration (ng/mL)/Compliance-7X): 1110 ng/mL
concentration at 3 h ([2]; male, human, blood, oral, 40 mg, Time 3 hrs, dosing every 24 hours for 7 days, read-out: Blood concentration (ng/mL)/Compliance-7X): 1090 ng/mL
concentration at 4 h ([2]; male, human, blood, oral, 40 mg, Time 4 hrs, dosing every 24 hours for 7 days, read-out: Blood concentration (ng/mL)/Compliance-7X): 911 ng/mL
concentration at 5 h ([2]; male, human, blood, oral, 40 mg, Time 5 hrs, dosing every 24 hours for 7 days, read-out: Blood concentration (ng/mL)/Compliance-7X): 714 ng/mL
concentration at 6 h ([2]; male, human, blood, oral, 40 mg, Time 6 hrs, dosing every 24 hours for 7 days, read-out: Blood concentration (ng/mL)/Compliance-7X): 543 ng/mL
concentration at 8 h ([2]; male, human, blood, oral, 40 mg, Time 8 hrs, dosing every 24 hours for 7 days, read-out: Blood concentration (ng/mL)/Compliance-7X): 361 ng/mL
concentration at 10 h ([2]; male, human, blood, oral, 40 mg, Time 10 hrs, dosing every 24 hours for 7 days, read-out: Blood concentration (ng/mL)/Compliance-7X): 263 ng/mL
concentration at 12 h ([2]; male, human, blood, oral, 40 mg, Time 12 hrs, dosing every 24 hours for 7 days, read-out: Blood concentration (ng/mL)/Compliance-7X): 193 ng/mL
concentration at 16 h ([2]; male, human, blood, oral, 40 mg, Time 16 hrs, dosing every 24 hours for 7 days, read-out: Blood concentration (ng/mL)/Compliance-7X): 123 ng/mL
concentration at 24 h ([2]; male, human, blood, oral, 40 mg, Time 24 hrs, dosing every 24 hours for 7 days, read-out: Blood concentration (ng/mL)/Compliance-7X): 66.2 ng/mL
concentration at 24 h ([2]; male, human, blood, oral, 24 hr, before accumulation, read-out: blood concentration remaining at 24 hr): ~40 ng/mL
concentration at 0 h ([2]; male, human, blood, oral, Time 0 hrs, drug taken only one day, read-out: Blood concentration (ng/mL)/Non-Compliance-1X): 0 ng/mL
concentration at 1 h ([2]; male, human, blood, oral, Time 1 hrs, drug taken only one day, read-out: Blood concentration (ng/mL)/Non-Compliance-1X): 677 ng/mL
concentration at 2 h ([2]; male, human, blood, oral, Time 2 hrs, drug taken only one day, read-out: Blood concentration (ng/mL)/Non-Compliance-1X): 1000 ng/mL
concentration at 2.5 h ([2]; male, human, blood, oral, Time 2.5 hrs, drug taken only one day, read-out: Blood concentration (ng/mL)/Non-Compliance-1X): 976 ng/mL
concentration at 3 h ([2]; male, human, blood, oral, Time 3 hrs, drug taken only one day, read-out: Blood concentration (ng/mL)/Non-Compliance-1X): 912 ng/mL
concentration at 4 h ([2]; male, human, blood, oral, Time 4 hrs, drug taken only one day, read-out: Blood concentration (ng/mL)/Non-Compliance-1X): 760 ng/mL
concentration at 5 h ([2]; male, human, blood, oral, Time 5 hrs, drug taken only one day, read-out: Blood concentration (ng/mL)/Non-Compliance-1X): 617 ng/mL
concentration at 6 h ([2]; male, human, blood, oral, Time 6 hrs, drug taken only one day, read-out: Blood concentration (ng/mL)/Non-Compliance-1X): 452 ng/mL
concentration at 8 h ([2]; male, human, blood, oral, Time 8 hrs, drug taken only one day, read-out: Blood concentration (ng/mL)/Non-Compliance-1X): 289 ng/mL
concentration at 10 h ([2]; male, human, blood, oral, Time 10 hrs, drug taken only one day, read-out: Blood concentration (ng/mL)/Non-Compliance-1X): 202 ng/mL
concentration at 12 h ([2]; male, human, blood, oral, Time 12 hrs, drug taken only one day, read-out: Blood concentration (ng/mL)/Non-Compliance-1X): 146 ng/mL
concentration at 16 h ([2]; male, human, blood, oral, Time 16 hrs, drug taken only one day, read-out: Blood concentration (ng/mL)/Non-Compliance-1X): 87.9 ng/mL
concentration at 24 h ([2]; male, human, blood, oral, Time 24 hrs, drug taken only one day, read-out: Blood concentration (ng/mL)/Non-Compliance-1X): 41.1 ng/mL
AUC ([2]; male, human, blood, oral, population of subjects receiving olmesartan at 40 mg/day, daily administration, read-out: median AUC (target AUC)): ~7000 ng·h/mL
clearance ([2]; much of the drug gone from the system at 48 hr): rapid clearance
subjects achieving target blood pressure reduction [3]: about 50%
